Measured values taken from patent US4804502A, “Vitamin D compounds” (priority 1988, dated 1989).

Assays:
[1] = tested on: HL-60 promyelocytic leukemia cells; assay: Induction of differentiation of HL-60 cells (NBT reduction); format: cell-based, human; conditions: 8 days; for EC50: Homo sapiens, HL-60, 192 h, from dose response curves, read-out: ED50 (concentration which induced differentiation of 50% of the cells)
Procedure: (§1) Inhibition of Cell Proliferation and Induction of Cell Differentiation
(§2) Cultures of HL-60 promyelocytic leukemia cells were established in the absence (control) and presence of various concentrations of test compounds. After an 8-day incubation period, the cultures were evaluated for proliferation of tumor cells, cell viability, and cellular differentiation. Proliferation was assessed by directly enumerating the increased number of tumor cells resulting from cell division during incubation. Viability was assessed by dye exclusion technique to learn whether any of the compounds were lethal to the cultured HL-60 cells. Cellular differentiation was evaluated by determining the number of cells which had acquired the enzymes necessary to support a respiratory burst, a characteristic of mature macrophages and granulocytes.
(§3) Tissue culture medium used in these experiments was RPMI-1640 supplemented to 10% v/v with heat-inactivated fetal bovine serum and to an additional 1.6 mM with L-glutamine.
(§4) Test compounds were dissolved in sufficient ethanol to yield stock solutions of 1×10^-2 or 1×10^-3 molar. Reduced lighting was used when working with compounds and stock solutions were stored in the dark at -20° C. in an argon atmosphere. Compounds were diluted in tissue culture medium and added to flasks containing HL-60 cells to achieve the final concentration described in each test.
(§5) The HL-60 tumor cell line was originally derived from a patient with promyelocytic leukemia and was obtained from the American Type Culture Collection. The cells were maintained in liquid culture by serial passage twice weekly in tissue culture medium. […] In any test, three replicate flasks were incubated without compound (control) or in the presence of varying concentrations of test compound. Ethanol, used as the vehicle, was kept constant in all dilutions in each test and had no effect on cell proliferation, viability or cell differentiation at the concentrations used (≤0.1%). After 8 days of incubation at 37° in a humidified atmosphere of 5% CO2 in air, cultures were evaluated for tumor cell proliferation, viability and differentiation.
Quantitation of differentiated cells was done by the biochemical method of nitroblue tetrazolum (NBT) reduction. One million HL-60 cells were pooled from replicate cultures, centrifuged at 220×g for 10 minutes, and resuspended in 1 ml of Ca^++ -Mg^++ -deficient phosphate buffered saline prepared by supplementing Ca^++ -Mg^++ -free phosphate buffered saline (PBS) to 20% v/v with heat-inactivated fetal bovine serum). Nitroblue tetrazolium was dissolved at 0.5 mg per ml in Ca^++ -Mg^++ -free PBS with gentle heating and frequent mixing. A stock solution of 1 mg tetradecanoyl phorbol acetate (TPA) per ml in ethanol, stored at -20°, was diluted 100-fold with Ca^++ -Mg^++ -free PBS to prepare a working solution. The test was done by adding 1 ml of NBT solution and 0.02 ml of the working TPA solution to the HL-60 cells. After mixing, the tubes were incubated in a 37° water bath for 25 minutes then transferred to ice. Undifferentiated and differentiated cells present in any sample were determined microscopically by surveying a minimum of 300 cells per sample. Cells without pigmented granules (clear cells) were judged to be undifferentiated while those containing greater than 3 blue-black formazan granules were scored as differentiated. Generally, differentiated cells were intensely pigmented clearly indicating the enzymatic conversion of NBT to formazan. Results are expressed as the percentage of differentiated cells present in any sample as calculated according to the formula: [formula] The results are also expressed as the concentration of compound which induced differentiation of 50% of the cells (ED50).

[2] = tested on: HL-60 promyelocytic leukemia cells; assay: Inhibition of proliferation of HL-60 cells; format: cell-based; conditions: Homo sapiens, HL-60, 192 h, 8 days; for inhibition at 0.001 µM: 0.1 × 10^-8 M; for inhibition at 0.01 µM: 1 × 10^-8 M; for inhibition at 0.1 µM: 10 × 10^-8 M; for IC50: from dose response curves, read-out: ID50 (concentration which reduced the cell number by 50%)
Procedure: as §1, §2, §3, §4, §5
Quantitation of proliferation was done by enumerating the number of HL-60 cells in each individual flask (3 flasks per experimental point) using an Elzone electronic particle counter. Results are shown as the percent reduction of cell number calculated for each concentration tested according to the formula: [formula] The results are also expressed as the concentration which reduced the cell number by 50% (ID50).

[3] = biological target: T1, 1,25-(OH)2 D3 receptors (chick intestine) (Gallus gallus, UniProt O42392); assay: Competitive Binding to 1,25-(OH)2 D3 Intestine Receptors, chick; conditions: a/b×100 from amounts displacing 50% of 1,25-(OH)2[3H]D3
T1 construct: receptor prepared from intestine of chick, rat and calf; from tissue; host or cells: chick proximal small-intestine mucosa, cytosol, 35% ammonium sulphate precipitate
T1 sequence (O42392 1-451): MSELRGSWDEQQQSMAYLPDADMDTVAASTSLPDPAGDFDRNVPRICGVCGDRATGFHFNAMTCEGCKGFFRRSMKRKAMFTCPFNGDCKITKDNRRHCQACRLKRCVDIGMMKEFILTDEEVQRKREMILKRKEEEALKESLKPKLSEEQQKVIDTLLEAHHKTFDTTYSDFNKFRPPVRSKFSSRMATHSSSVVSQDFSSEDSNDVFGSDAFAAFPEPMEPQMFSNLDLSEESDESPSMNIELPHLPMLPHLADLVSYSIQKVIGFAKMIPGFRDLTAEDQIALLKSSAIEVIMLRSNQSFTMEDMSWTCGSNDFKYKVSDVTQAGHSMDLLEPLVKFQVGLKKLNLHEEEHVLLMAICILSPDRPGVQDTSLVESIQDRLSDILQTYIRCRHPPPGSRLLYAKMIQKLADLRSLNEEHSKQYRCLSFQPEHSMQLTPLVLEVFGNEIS
Procedure: The ability of vitamin D3 metabolites to compete for 1,25-(OH)[^3 H]D3 receptor binding sites was evaluated with receptor prepared from intestine of chick, rat and calf. […] Mucosa was collected and washed three times with 10 volumes of cold KTED buffer. The washed mucosa was homogenized in KTED buffer (20% w/v) using a Polytron Pt20 tissue disruptor. Cytosol was prepared by centrifugation of the homogenized mucosa at 300,000×g for 1 hour. […] The ammonium sulphate treated cytosol was centrifuged at 20,000×g for 10 minutes. The supernatant was discarded and the pellet lyophilized and stored at […] Prior to binding assay the pellet was resuspended in cold binding assay buffer containing 150 mM KCl, 50 mM NaPO4, 1.5 mM EDTA and 5 mM dithiothreitol.

[4] = tested on: intestinal calcium absorption (duodenum); assay: Stimulation of Intestinal Calcium Absorption in Rat (intestinal 45Ca transport, everted gut sac); conditions: intrajugular, 18 h
[5] = read-out: % Reduction in cell number

Row | Structure (SMILES) | % Differentiated cells ([1]; 0.01 × 10^-8 M) | % Differentiated cells ([1]; 0.1 × 10^-8 M) | % Differentiated cells ([1]; 1 × 10^-8 M) | % Differentiated cells ([1]; 10 × 10^-8 M) | EC50 [1] | inhibition at 0.0001 µM ([2]; 0.01 × 10^-8 M, read-out: % Reduction in cell number) | inhibition at 0.001 µM [2, 5] | inhibition at 0.01 µM [2, 5] | inhibition at 0.1 µM [2, 5] | IC50 [2] | Competitive Binding to 1,25-(OH)2 D3 Receptors - % of 1,25-(OH)2 D3 Effect, chick intestine [3] | % of 1,25-(OH)2 D3 Effect in Rat, intestinal calcium absorption ([4]; 12.5 ng/rat) | % of 1,25-(OH)2 D3 Effect in Rat, intestinal calcium absorption ([4]; 15.5 ng/rat)
1 | C=C1/C(=C\C=C2/CCC[C@]3(C)[C@@H]([C@H](C)CC#CC(O)(C(F)(F)F)C(F)(F)F)CC[C@@H]23)C[C@@H](O)C[C@@H]1O [Compound B] | 13% | 29% | 95% | 98% | 2 nM | 15% | 31% | 85% | 89% | 2 nM | 47% | 124% | 
2 | C=C1/C(=C\C=C2/CCC[C@]3(C)[C@@H]([C@H](C)CC#CC(C)(C)O)CC[C@@H]23)C[C@@H](O)C[C@@H]1O [Compound A, 1α,25-dihydroxy-23-yne-cholecalciferol] |  | 15% | 54% | 98% | 9 nM |  | 30% | 67% | 85% | 6 nM | 60% |  | 95%
